Assays:
[1] = target: C-C chemokine receptor type 5 (Homo sapiens, UniProt P51681); assay: Antagonist activity at CCR5 (unknown origin) expressed in HEK293 cells co-expressing Galpha16 assessed as inhibition of RANTES-induced calcium flux preincubated for 10 mins followed by RANTES addition by fluo-4AM-based fluorescence assay; format: functional, cell-based
[2] = in vitro; settings: human, TZM-bl cells
Description: Therapeutic index, ratio of CC50 for human TZM-bl cells to EC50 for CCR5-dependent HIV1 SF162 infected in human TZM-bl cells

[3] = tested on: Human immunodeficiency virus 1; assay: microbe, parasite or virus in culture; settings: Human immunodeficiency virus 1, SF162, TZM-bl, 48 h
Description: Antiviral activity against CCR5-dependent HIV1 SF162 infected in human TZM-bl cells assessed as reduction in virus infection measured after 48 hrs post infection by luciferase reporter gene assay

[4] = Cytotoxicity against human TZM-bl cells after 48 hrs by MTT assay; format: cell-based
[5] = Tmax in Sprague-Dawley rat at 10 mg/kg, iv by LC-MS/MS analysis; format: ADME, organism-based; settings: in vivo
[6] = tested on: Human immunodeficiency virus 1; assay: microbe, parasite or virus in culture; settings: Human immunodeficiency virus 1, KM018, PBMC, 168 h
Description: Antiviral activity against CCR5-dependent HIV1 KM018 infected in human PBMC assessed as reduction in virus infection measured after 7 days by luciferase reporter gene assay

[7] = Oral bioavailability in Sprague-Dawley rat at 20 mg/kg by LC-MS/MS analysis; format: ADME, organism-based; settings: in vivo
[8] = in vitro; settings: human, PBMC
Description: Therapeutic index, ratio of CC50 for human PBMC to IC50 for CCR5-dependent HIV1 Ba-L infected in human PBMC

[9] = Half life in Sprague-Dawley rat at 10 mg/kg, iv by LC-MS/MS analysis; format: ADME, organism-based; settings: in vivo
[10] = AUC (0 to infinity) in Sprague-Dawley rat at 10 mg/kg, iv by LC-MS/MS analysis; format: ADME, organism-based; parameters: dose 10 mg/kg, time infinity, route intravenous; settings: in vivo
[11] = target: Cytochrome P450 2D6 (Homo sapiens, UniProt P10635); assay: Inhibition of CYP2D6 (unknown origin); format: ADME
Cytochrome P450 2D6, sequence (P10635 whole entry): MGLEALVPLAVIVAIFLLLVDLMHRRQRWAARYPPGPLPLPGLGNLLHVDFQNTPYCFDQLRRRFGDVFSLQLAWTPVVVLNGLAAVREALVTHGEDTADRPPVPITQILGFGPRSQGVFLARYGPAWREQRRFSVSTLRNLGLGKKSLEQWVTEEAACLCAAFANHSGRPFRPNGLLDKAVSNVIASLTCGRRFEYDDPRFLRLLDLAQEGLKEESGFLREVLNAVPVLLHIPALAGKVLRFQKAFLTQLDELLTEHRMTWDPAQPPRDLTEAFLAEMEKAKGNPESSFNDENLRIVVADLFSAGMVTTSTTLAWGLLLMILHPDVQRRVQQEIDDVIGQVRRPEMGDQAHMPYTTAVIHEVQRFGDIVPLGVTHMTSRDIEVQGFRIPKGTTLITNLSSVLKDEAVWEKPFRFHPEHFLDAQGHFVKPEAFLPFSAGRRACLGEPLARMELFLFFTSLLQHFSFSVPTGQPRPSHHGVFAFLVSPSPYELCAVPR

[12] = tested on: Human immunodeficiency virus 1; assay: microbe, parasite or virus in culture; settings: Human immunodeficiency virus 1, Ba-L, HOS, 120 h
Description: Antiviral activity against CCR5-dependent HIV1 Ba-L infected in human HOS cells assessed as reduction in virus infection measured after 5 days by luciferase reporter gene assay

[13] = tested on: Human immunodeficiency virus 1; assay: microbe, parasite or virus in culture; settings: Human immunodeficiency virus 1, SF162, HOS, 120 h
Description: Antiviral activity against CCR5-dependent HIV1 SF162 infected in human HOS cells assessed as reduction in virus infection measured after 5 days by luciferase reporter gene assay

[14] = AUC (0 to infinity) in Sprague-Dawley rat at 20 mg/kg, po by LC-MS/MS analysis; format: ADME, organism-based; parameters: dose 20 mg/kg, route oral, time infinity; settings: in vivo
[15] = Cmax in Sprague-Dawley rat at 20 mg/kg, po by LC-MS/MS analysis; format: ADME, organism-based; parameters: dose 20 mg/kg, route oral; settings: in vivo
[16] = tested on: Human immunodeficiency virus 1; assay: microbe, parasite or virus in culture; settings: Human immunodeficiency virus 1, SF162, PBMC, 168 h
Description: Antiviral activity against CCR5-dependent HIV1 SF162 infected in human PBMC assessed as reduction in virus infection measured after 7 days by luciferase reporter gene assay

[17] = tested on: Human immunodeficiency virus 1; assay: microbe, parasite or virus in culture; settings: Human immunodeficiency virus 1, Ba-L, PBMC, 168 h
Description: Antiviral activity against CCR5-dependent HIV1 Ba-L infected in human PBMC assessed as reduction in virus infection measured 7 days by luciferase reporter gene assay

[18] = in vitro; settings: human, HOS cells
Description: Therapeutic index, ratio of CC50 for human HOS cells to IC50 for CCR5-dependent HIV1 SF162 infected in human HOS cells

[19] = Clearance in Sprague-Dawley rat at 10 mg/kg, iv by LC-MS/MS analysis; format: ADME, organism-based; settings: in vivo
[20] = in vitro; settings: human, PBMC; remark: listed apart in the source
Description: Therapeutic index, ratio of CC50 for human PBMC to IC50 for CCR5-dependent HIV1 KM018 infected in human PBMC

[21] = target: T1, Cytochrome P450 3A4 (Homo sapiens, UniProt P08684); assay: Inhibition of CYP3A4 (unknown origin) using testosterone as substrate; format: ADME
T1 sequence (P08684 whole entry): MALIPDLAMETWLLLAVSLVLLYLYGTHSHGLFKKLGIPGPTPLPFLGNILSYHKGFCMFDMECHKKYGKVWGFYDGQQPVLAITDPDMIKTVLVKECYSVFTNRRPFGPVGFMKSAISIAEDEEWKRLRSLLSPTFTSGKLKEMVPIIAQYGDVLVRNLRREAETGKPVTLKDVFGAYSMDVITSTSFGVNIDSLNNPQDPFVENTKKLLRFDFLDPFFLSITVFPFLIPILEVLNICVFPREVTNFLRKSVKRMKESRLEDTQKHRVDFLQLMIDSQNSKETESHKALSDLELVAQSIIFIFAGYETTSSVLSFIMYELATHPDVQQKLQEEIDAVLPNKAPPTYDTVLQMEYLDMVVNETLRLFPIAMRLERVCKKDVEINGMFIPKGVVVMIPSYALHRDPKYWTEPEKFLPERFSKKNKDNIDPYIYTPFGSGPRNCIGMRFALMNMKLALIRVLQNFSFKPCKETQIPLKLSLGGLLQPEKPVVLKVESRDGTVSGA

[22] = in vitro; settings: human, PM1 cells
Description: Therapeutic index, ratio of CC50 for human PM1 cells to IC50 for CCR5-dependent HIV1 Ba-L infected in human PM1 cells

[23] = in vitro; settings: human, HOS cells; remark: listed apart in the source
Description: Therapeutic index, ratio of CC50 for human HOS cells to IC50 for CCR5-dependent HIV1 Ba-L infected in human HOS cells

[24] = tested on: Human immunodeficiency virus 1; assay: microbe, parasite or virus in culture; settings: Human immunodeficiency virus 1, Ba-L, PM1, 120 h
Description: Antiviral activity against CCR5-dependent HIV1 Ba-L infected in human PM1 cells assessed as reduction in virus infection measured after 5 days by luciferase reporter gene assay

[25] = in vitro; settings: human, PBMC; remark: listed apart in the source
Description: Therapeutic index, ratio of CC50 for human PBMC to IC50 for CCR5-dependent HIV1 SF162 infected in human PBMC cells

[26] = Half life in Sprague-Dawley rat at 20 mg/kg, po by LC-MS/MS analysis; format: ADME, organism-based; settings: in vivo
[27] = target: T1, Cytochrome P450 3A4; assay: Inhibition of CYP3A4 (unknown origin) using midazolam as substrate; format: ADME
[28] = MRT in Sprague-Dawley rat at 20 mg/kg, po by LC-MS/MS analysis; format: ADME, organism-based; settings: in vivo
[29] = target: Voltage-gated inwardly rectifying potassium channel KCNH2 (Homo sapiens, UniProt Q12809); assay: Inhibition of human ERG expressed in CHO cells at holding potential of -80 mV after 60 secs by patch clamp assay; format: cell-based
Voltage-gated inwardly rectifying potassium channel KCNH2, sequence (Q12809 whole entry): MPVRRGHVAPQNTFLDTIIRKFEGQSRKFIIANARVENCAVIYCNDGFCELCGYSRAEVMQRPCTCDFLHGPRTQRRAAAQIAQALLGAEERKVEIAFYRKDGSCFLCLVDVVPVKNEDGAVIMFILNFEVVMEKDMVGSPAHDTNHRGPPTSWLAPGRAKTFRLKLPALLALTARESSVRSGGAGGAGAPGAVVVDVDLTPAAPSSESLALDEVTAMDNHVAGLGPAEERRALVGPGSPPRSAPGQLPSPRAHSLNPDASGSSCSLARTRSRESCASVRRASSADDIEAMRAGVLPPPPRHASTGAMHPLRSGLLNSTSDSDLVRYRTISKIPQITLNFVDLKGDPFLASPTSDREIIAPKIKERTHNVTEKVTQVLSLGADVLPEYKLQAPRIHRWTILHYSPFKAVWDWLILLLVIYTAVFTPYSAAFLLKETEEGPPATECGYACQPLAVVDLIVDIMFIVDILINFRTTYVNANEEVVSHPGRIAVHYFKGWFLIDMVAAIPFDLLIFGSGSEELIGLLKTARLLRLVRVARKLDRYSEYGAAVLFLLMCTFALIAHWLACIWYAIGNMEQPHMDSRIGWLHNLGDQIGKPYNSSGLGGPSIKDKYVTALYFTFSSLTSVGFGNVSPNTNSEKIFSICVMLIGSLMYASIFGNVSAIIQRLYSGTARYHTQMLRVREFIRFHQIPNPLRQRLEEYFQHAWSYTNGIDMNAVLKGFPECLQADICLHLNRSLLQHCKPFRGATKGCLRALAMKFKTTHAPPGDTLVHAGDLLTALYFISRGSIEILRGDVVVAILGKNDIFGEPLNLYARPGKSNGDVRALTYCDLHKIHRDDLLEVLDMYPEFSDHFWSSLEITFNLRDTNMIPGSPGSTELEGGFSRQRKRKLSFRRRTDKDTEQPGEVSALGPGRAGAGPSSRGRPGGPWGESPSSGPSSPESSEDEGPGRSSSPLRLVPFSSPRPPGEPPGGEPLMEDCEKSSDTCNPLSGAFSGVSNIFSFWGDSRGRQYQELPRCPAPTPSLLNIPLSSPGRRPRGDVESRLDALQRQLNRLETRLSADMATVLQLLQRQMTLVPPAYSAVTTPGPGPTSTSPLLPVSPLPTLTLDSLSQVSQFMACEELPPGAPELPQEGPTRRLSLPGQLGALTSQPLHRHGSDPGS

[30] = target: T2, Cytochrome P450 1A2 (Homo sapiens, UniProt P05177); assay: Inhibition of CYP1A2 (unknown origin); format: ADME
T2 sequence (P05177 whole entry): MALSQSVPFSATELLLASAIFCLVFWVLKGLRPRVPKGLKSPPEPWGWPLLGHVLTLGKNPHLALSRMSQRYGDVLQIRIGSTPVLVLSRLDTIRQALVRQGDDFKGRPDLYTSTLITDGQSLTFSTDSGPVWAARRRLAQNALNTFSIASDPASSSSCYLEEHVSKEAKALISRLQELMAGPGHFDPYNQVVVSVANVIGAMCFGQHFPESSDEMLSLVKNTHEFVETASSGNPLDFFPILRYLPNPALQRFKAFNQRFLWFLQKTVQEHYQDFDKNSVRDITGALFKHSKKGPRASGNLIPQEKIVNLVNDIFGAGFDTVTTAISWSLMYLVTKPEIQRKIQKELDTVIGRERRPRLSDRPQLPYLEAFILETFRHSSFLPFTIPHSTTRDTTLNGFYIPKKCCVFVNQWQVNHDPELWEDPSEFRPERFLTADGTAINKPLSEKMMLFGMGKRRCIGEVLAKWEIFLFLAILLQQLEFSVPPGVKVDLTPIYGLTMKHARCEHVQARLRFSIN

[31] = Cmax in Sprague-Dawley rat at 10 mg/kg, iv by LC-MS/MS analysis; format: ADME, organism-based; parameters: dose 10 mg/kg, route intravenous; settings: in vivo
[32] = target: Cytochrome P450 2C9 (Homo sapiens, UniProt P11712); assay: Inhibition of CYP2C9 (unknown origin); format: ADME
Cytochrome P450 2C9, sequence (P11712 whole entry): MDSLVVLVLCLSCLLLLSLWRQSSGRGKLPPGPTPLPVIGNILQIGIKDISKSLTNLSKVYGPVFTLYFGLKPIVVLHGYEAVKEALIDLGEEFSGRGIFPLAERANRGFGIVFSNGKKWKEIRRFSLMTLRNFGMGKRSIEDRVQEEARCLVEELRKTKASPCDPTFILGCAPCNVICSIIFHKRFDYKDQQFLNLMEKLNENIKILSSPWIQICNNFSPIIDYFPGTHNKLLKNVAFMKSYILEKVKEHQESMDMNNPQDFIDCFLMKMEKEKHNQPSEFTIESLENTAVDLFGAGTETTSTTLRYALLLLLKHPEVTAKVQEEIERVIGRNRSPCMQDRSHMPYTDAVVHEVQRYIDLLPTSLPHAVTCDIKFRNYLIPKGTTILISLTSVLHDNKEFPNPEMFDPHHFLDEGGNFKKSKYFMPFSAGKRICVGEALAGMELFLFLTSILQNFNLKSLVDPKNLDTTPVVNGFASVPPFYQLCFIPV

[33] = target: Cytochrome P450 2C19 (Homo sapiens, UniProt P33261); assay: Inhibition of CYP2C19 (unknown origin); format: ADME
Cytochrome P450 2C19, sequence (P33261 whole entry): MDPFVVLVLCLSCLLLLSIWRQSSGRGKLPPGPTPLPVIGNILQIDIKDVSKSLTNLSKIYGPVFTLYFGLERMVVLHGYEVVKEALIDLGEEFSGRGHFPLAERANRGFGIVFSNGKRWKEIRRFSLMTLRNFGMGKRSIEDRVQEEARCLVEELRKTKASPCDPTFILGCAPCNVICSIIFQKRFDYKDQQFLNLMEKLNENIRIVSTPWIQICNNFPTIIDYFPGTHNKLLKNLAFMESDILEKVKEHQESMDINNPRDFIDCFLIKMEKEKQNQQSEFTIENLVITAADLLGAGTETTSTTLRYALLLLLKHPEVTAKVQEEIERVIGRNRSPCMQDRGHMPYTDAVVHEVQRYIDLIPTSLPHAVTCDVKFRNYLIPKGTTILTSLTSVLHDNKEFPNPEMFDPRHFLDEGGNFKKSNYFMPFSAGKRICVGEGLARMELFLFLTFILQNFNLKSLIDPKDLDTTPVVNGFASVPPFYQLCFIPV

[34] = Tmax in Sprague-Dawley rat at 20 mg/kg, po by LC-MS/MS analysis; format: ADME, organism-based; settings: in vivo
[35] = MRT in Sprague-Dawley rat at 10 mg/kg, iv by LC-MS/MS analysis; format: ADME, organism-based; settings: in vivo

C-C chemokine receptor type 5, sequence (P51681 whole entry): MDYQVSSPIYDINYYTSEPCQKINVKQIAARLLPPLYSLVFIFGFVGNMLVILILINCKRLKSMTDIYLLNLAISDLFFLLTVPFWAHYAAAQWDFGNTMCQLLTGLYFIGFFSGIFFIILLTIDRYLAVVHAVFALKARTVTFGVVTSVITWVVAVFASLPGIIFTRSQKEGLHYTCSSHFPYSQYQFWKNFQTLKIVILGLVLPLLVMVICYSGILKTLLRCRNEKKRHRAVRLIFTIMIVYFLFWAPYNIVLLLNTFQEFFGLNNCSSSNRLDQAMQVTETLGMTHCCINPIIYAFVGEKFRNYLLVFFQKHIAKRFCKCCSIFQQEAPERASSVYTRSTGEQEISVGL

SMILES: Cc1csc([C@H](CCN2[C@@H]3CC[C@H]2C[C@H](n2c(C)nnc2C(C)C)C3)NC(=O)C2CCC(F)(F)CC2)c1
- IC50 [1]: 6.8 nM

SMILES: Cc1nnc(C(C)C)n1[C@@H]1C[C@H]2CC[C@@H](C1)N2CC[C@H](NC(=O)C1CCC(F)CC1)c1cccs1 (some centres undefined)
- IC50 [1]: 3 nM

SMILES: Cc1nnc(C(C)C)n1[C@@H]1C[C@H]2CC[C@@H](C1)N2CC[C@H](NC(=O)C1CC(=O)N(C)C1)c1cccs1 (some centres undefined)
- IC50 [1]: 5.2 nM

SMILES: Cc1nnc(C(C)C)n1[C@@H]1C[C@H]2CC[C@@H](C1)N2CC[C@H](NC(=O)C1CCC(F)(F)CC1)c1csc2ccccc12
- IC50 [1]: 9.7 nM
- selectivity ratio [2]: 119
- IC50 [3]: 810 nM
- CC50 at 48 h [4]: 96100 nM

SMILES: O=C(N[C@@H](CCN1[C@@H]2CC[C@H]1C[C@H](n1c(C3CC3)nnc1C(F)(F)F)C2)c1ccsc1)C1CCC(F)(F)CC1
- IC50 [1]: 2.9 nM

SMILES: CC(C)c1nnc(C(F)(F)F)n1[C@@H]1C[C@H]2CC[C@@H](C1)N2CC[C@H](NC(=O)C1CCC(F)(F)CC1)c1cccs1
- IC50 [1]: 4.7 nM

SMILES: CCc1nnc(C)n1[C@@H]1C[C@H]2CC[C@@H](C1)N2CC[C@H](NC(=O)C1CCC(F)(F)CC1)c1ccsc1
- IC50 [1]: 2.8 nM

SMILES: Cc1nnc(C(C)C)n1[C@@H]1C[C@H]2CC[C@@H](C1)N2CC[C@H](NC(=O)C1CCC(F)(F)CC1)c1cscn1
- IC50 [1]: 27.1 nM

SMILES: Cc1nnc(C(C)C)n1[C@@H]1C[C@H]2CC[C@@H](C1)N2CC[C@H](NC(=O)C1CCC(F)(F)CC1)c1ccc(F)s1
- IC50 [1]: 15.8 nM
- selectivity ratio [2]: > 385
- IC50 [3]: 520 nM
- CC50 at 48 h [4]: > 200000 nM

SMILES: Cc1cscc1[C@H](CCN1[C@@H]2CC[C@H]1C[C@H](n1c(C)nnc1C(C)C)C2)NC(=O)C1CCC(F)(F)CC1
- IC50 [1]: 8.1 nM

SMILES: Cc1nnc(C(C)C)n1[C@@H]1C[C@H]2CC[C@@H](C1)N2CC[C@H](NC(=O)C(C)(C)C(F)(F)F)c1cccs1
- IC50 [1]: 5.4 nM

SMILES: Cc1nnc(C(C)C)n1[C@@H]1C[C@H]2CC[C@@H](C1)N2CC[C@H](NC(=O)C1CCC(=O)C1)c1cccs1 (some centres undefined)
- IC50 [1]: 2.9 nM

SMILES: Cc1ccc([C@H](CCN2[C@@H]3CC[C@H]2C[C@H](n2c(C)nnc2C(C)C)C3)NC(=O)C2CCCC2)s1
- IC50 [1]: 2.6 nM

SMILES: Cc1nnc(C2CC2)n1[C@@H]1C[C@H]2CC[C@@H](C1)N2CC[C@H](NC(=O)C1CCC(F)(F)CC1)c1ccsc1
- IC50 [1]: 2.6 nM

SMILES: Cc1ccc([C@H](CCN2[C@@H]3CC[C@H]2C[C@H](n2c(C)nnc2C(C)C)C3)NC(=O)c2ccccc2)s1
- IC50 [1]: 51.7 nM

SMILES: Cc1nnc(C(C)C)n1[C@@H]1C[C@H]2CC[C@@H](C1)N2CC[C@H](NC(=O)C1CCC(F)(F)CC1)c1ccc(Cl)s1
- IC50 [1]: 12 nM

SMILES: Cc1nnc(C(C)C)n1[C@@H]1C[C@H]2CC[C@@H](C1)N2CC[C@H](NC(=O)C1CCC(F)(F)CC1)c1ccc(F)nc1
- IC50 [1]: 252 nM

SMILES: Cc1nnc(C2CC2)n1[C@@H]1C[C@H]2CC[C@@H](C1)N2CC[C@H](NC(=O)C1CCC(F)(F)CC1)c1cccs1
- IC50 [1]: 2.9 nM

SMILES: Cc1nnc(C(C)C)n1[C@@H]1C[C@H]2CC[C@@H](C1)N2CC[C@H](NC(=O)C1CCC(F)(F)CC1)c1cccs1
- Tmax [5]: 0.25 h
- IC50 [6]: 4.8 nM
- IC50 [1]: 9.1 nM
- bioavailability [7]: 7.8%
- selectivity ratio [8]: 9400
- half-life [9]: 0.77 h
- AUC(0-inf) [10]: 7050 ng·h/mL
- IC50 [11]: > 25000 nM
- IC50 [12]: 3.6 nM
- IC50 [13]: 13.1 nM
- AUC(0-inf) [14]: 1110 ng·h/mL
- Cmax [15]: 266 ng/mL
- selectivity ratio [2]: > 55000
- IC50 [16]: 2.9 nM
- IC50 [17]: 28.5 nM
- selectivity ratio [18]: 28000
- clearance [19]: 23.7 mL/min/kg
- selectivity ratio [20]: 56000
- IC50 [21]: > 25000 nM
- selectivity ratio [22]: 99000
- selectivity ratio [23]: 100000
- IC50 [24]: 6.2 nM
- selectivity ratio [25]: 92000
- half-life [26]: 2.1 h
- IC50 [3]: 3.6 nM
- IC50 [27]: > 25000 nM
- MRT [28]: 3.3 h
- IC50 [29]: 3500 nM
- IC50 [30]: > 25000 nM
- Cmax [31]: 6840 ng/mL
- IC50 [32]: > 25000 nM
- IC50 [33]: > 25000 nM
- Tmax [34]: 4 h
- CC50 at 48 h [4]: > 200000 nM
- MRT [35]: 0.7 h

SMILES: Cc1nnc(C(C)C)n1[C@@H]1C[C@H]2CC[C@@H](C1)N2CC[C@H](NC(=O)C1CCC(F)(F)C1)c1cccs1 (some centres undefined)
- IC50 [1]: 2.3 nM

SMILES: Cc1nnc(C(C)C)n1[C@@H]1C[C@H]2CC[C@@H](C1)N2CC[C@H](NC(=O)[C@@H]1CCC(=O)N1)c1cccs1
- IC50 [1]: 20.6 nM

SMILES: Cc1nnc(C(C)C)n1[C@@H]1C[C@H]2CC[C@@H](C1)N2CC[C@H](NC(=O)C1CC(F)(F)C1)c1cccs1
- IC50 [1]: 2.6 nM

SMILES: Cc1nnc(C(C)C)n1[C@@H]1C[C@H]2CC[C@@H](C1)N2CC[C@H](NC(=O)C1CCC(F)(F)CC1)c1cccnc1
- IC50 [1]: 82.6 nM
- selectivity ratio [2]: > 65.8
- IC50 [3]: 1520 nM
- CC50 at 48 h [4]: > 100000 nM

SMILES: Cc1ccc([C@H](CCN2[C@@H]3CC[C@H]2C[C@H](n2c(C)nnc2C(C)C)C3)NC(=O)Cc2ccc(F)cc2)s1
- IC50 [1]: 33 nM

SMILES: COc1ccc([C@H](CCN2[C@@H]3CC[C@H]2C[C@H](n2c(C)nnc2C(C)C)C3)NC(=O)C2CCC(F)(F)CC2)s1
- IC50 [1]: 6.8 nM

SMILES: Cc1ccc([C@H](CCN2[C@@H]3CC[C@H]2C[C@H](n2c(C(C)C)nnc2C(F)(F)F)C3)NC(=O)C2CCC(F)(F)CC2)s1
- IC50 [1]: 4 nM

Source: ChEMBL document CHEMBL4229569, “Structure-Based Design of 1-Heteroaryl-1,3-propanediamine Derivatives as a Novel Series of CC-Chemokine Receptor 5 Antagonists” (J Med Chem, 2018)
